Test results reported in patent publication US9937115B2, “Oral care compositions with improved flavor” (priority 2010, dated 2018).

How the values were obtained:
TRPA1 receptor = target: T1, TRPA1 receptor (Homo sapiens, UniProt O75762); assay: cell-based; set-up: activation: dose or concentration left out as unconfirmed; conditions: for activation at 100 µM / activation: HEK293, percentage of the control (allyl isothiocyanate) calcium count, material dissolved in DMSO at 100 micromolar, HEK cells with TRPA1; for activation at 100 µM: direct addition, read-out: TRPA1 Direct addition; for activation: pre-incubation, read-out: TRPA1 Pre-incubation; for % of AITC Receptor Activation (from Data in Table II): restated in Table III from Table II;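 on TRPA1 Pre-incubation: values above 100 mean more active than the control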
T1 construct: expressed in transfected cells; host or cells: HEK cell line
In short: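 HEK cells expressing TRPA1 were treated with test compounds dissolved in DMSO at 100 micromolar, with allyl isothiocyanate as positive control. Agonism was read on a FLIPR as calcium-dye fluorescence counts above background. A TRPA1 activator was defined as giving at least 1000 counts above background at 1 mM.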

[1] = Panelists brushed with dentifrice Formula Ia-Ie and rated reduction in soapy off taste and flavor character; format: in vivo; conditions: molecule incorporated in toothpaste Formula Ia-Ie; panelists n=4
Excerpt: Then, these materials were further screened in Test Formula Ia-Ie, by incorporating at the indicated level. After the toothpaste was made, a small group of panelists (n=4) brushed with the dentifrice and rated the reduction in soapy off taste and the flavor character the compound provided.

[2] = concentration where the cooling effect could be clearly recognized; cited from earlier work

T1 sequence (O75762 whole entry): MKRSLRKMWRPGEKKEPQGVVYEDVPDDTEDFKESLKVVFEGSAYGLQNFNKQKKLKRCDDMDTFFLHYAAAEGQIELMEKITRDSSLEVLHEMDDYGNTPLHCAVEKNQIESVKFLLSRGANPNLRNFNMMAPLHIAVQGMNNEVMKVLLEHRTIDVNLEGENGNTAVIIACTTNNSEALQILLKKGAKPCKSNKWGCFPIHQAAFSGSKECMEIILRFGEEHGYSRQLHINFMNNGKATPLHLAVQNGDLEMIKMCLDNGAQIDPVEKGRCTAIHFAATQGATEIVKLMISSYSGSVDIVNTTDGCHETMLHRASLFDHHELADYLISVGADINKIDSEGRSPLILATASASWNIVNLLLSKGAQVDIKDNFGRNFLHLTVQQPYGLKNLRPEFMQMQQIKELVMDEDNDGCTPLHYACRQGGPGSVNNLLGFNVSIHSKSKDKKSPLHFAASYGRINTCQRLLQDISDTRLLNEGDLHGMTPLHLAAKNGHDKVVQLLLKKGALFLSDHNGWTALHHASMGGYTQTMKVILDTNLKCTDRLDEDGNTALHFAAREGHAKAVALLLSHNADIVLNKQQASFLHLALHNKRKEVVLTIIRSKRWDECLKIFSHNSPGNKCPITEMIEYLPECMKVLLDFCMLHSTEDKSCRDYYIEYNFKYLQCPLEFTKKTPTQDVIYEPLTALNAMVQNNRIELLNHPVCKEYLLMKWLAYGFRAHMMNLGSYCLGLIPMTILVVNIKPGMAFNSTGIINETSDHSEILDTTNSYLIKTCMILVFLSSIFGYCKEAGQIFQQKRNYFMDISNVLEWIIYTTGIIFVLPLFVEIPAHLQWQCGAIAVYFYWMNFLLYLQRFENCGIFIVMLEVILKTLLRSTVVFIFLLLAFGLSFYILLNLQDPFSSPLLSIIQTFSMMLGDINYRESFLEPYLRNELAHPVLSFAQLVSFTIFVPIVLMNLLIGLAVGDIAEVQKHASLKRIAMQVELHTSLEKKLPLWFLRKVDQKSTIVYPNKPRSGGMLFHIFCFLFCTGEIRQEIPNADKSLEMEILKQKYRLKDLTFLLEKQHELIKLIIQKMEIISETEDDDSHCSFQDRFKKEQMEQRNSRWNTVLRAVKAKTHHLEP

Row | SMILES | activation at 100 µM (TRPA1 receptor) [%] | activation (TRPA1 receptor) [%] | % of AITC Receptor Activation (from Data in Table II) (TRPA1 receptor) [%] | Qualitative Team Evaluations (n = 4) [1] | cooling threshold [2]
1 | O=C(c1ccccc1)c1ccccc1 [Benzophenone] | 138 | 0 | 138 | No observable effect | –
2 | CC(C)[C@@H]1CC[C@@H](C)C[C@H]1O [L-menthol] | – | – | – | – | about 800 ppb
3 | CC(C)[C@@H]1CC[C@@H](C)C[C@@H]1O [Material 1-neomenthol, 1-neomenthol] | – | – | – | – | about 3,000 ppb
4 | Oc1cc(Cl)ccc1Oc1ccc(Cl)cc1Cl [Triclosan, reference compound] | 196 | -0.05 | 277 | Shifted off-taste from soapy to bitter after 10 minutes | –
5 | COc1cc(C=O)ccc1OC(=O)C(C)C [Vanillin Isobutyrate] | 118 | -0.11 | 118 | Great reduction in bitter taste with no aftertaste. Slight vanilla character. | –
6 | CC(C)[C@@H]1CC[C@@H](C)C[C@@H]1O [d-neomenthol] | – | – | – | – | about 25,000 ppb
